Measured values reported in US20170224683A1, “TREATMENT OF MELANOMA BY BLOCKING BENZAMIL SENSITIVE ION CHANNELS/EXCHANGERS” (The Board of Trustees of the Leland Stanford Junior …, priority 2014, published 2017).

Columns and labels:
Assay type in all cases: cell-based
[1] = test system: COLO829 melanoma cell line; assay: MTT proliferation assay, COLO829; details: 50 uM
Protocol: (§1) FIG. 3A-3D: Benzamil reduce invasion and proliferation of melanoma cell lines expressing increased Rac1GTP. […] Stimulation with Benzamil at 50 uM was not toxic, but reduced proliferation in COLO829,MM485,CHL1 melanoma cell lines similar to V12 Rac1 mutant primary melanocytes FIG. 3D.
(§2) Benzamil reduce invasion and proliferation of melanoma cell lines expressing increased Rac1GTP. […] Stimulation with Benzamil at 50 μM was not toxic, but reduced proliferation in COLO829,MM485,CHL1 melanoma cell lines similar to V12 Rac1 mutant primary melanocytes.
(§3) MTT proliferation assay. 25000 melanocytes were plated in each well in a 96 well plate, and incubated with 100 ul DMEM with 10% FBS 1% AA for 24 hours. 10 ul MTT reagent (MTT proliferation assay, ATCC, Manassas, US) was added for 4 hours, 100 ul detergent was added to each well for 2 hours., and absorbance read at 570 nm (Spectramax M5, Molecular Devices, US), normalized to cell-free control absorbance.

MM485 melanoma cell line = assay: MTT proliferation assay, MM485; details: 50 uM
Protocol: as §1, §2, §3

[2] = test system: V12 Rac1 mutant primary foreskin-derived melanocytes; assay: MTT proliferation assay, V12 Rac1 melanocytes
Protocol: FIG. 1A-1C: Benzamil inhibits V12 Rac1 driven melanocyte invasion and proliferation in vitro. […] Invasion was abolished in conditions treated with 50 uM Benzamil (FIG. 1A, FIG. 1B).
Invasion was abolished in conditions treated with 50 μM Benzamil.
as §3

CHL1 melanoma cell line = assay: MTT proliferation assay, CHL1; details: 50 uM
Protocol: as §1, §2, §3

With `NC(=NCc1ccccc1)NC(=O)c1nc(Cl)c(N)nc1N` [Benzamil, benzyl amiloride] the toxicity [1] was “not toxic”, the toxicity (MM485 melanoma cell line) was “not toxic” and the “Dosage tolerated in vitro (assessed by detectable proliferation)” value [2] was “up to 100 uM”. For the same compound, the toxicity (CHL1 melanoma cell line) was “not toxic”.
